One may read the Kd as a measure of binding affinity in units of concentration.

The target of assay [1] is T1, E. coli GAR TFase (Escherichia coli, UniProt P08179).
T1 construct: made in house; host or cells: E. coli TX393 with multicopy plasmid pJS85, or E. coli TX635 with lambda pL plasmid pJS119 or pJS167
T1 sequence (P08179 1-212): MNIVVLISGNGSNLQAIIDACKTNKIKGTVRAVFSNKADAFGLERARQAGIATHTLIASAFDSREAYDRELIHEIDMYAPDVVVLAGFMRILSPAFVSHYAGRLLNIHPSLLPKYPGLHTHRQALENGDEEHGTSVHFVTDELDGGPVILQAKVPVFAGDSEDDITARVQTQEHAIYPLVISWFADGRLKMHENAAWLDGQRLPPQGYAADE
Nature of the assay: Fluorescence titration, dissociation constant for E. coli GAR TFase. The class given is binding. As to conditions: average from three wavelengths (396, 400, 405 nm); standard error about 50 pM; 11 nM inhibitor, excitation 275 nm; read-out: thermodynamic dissociation constant, KD. The method, then:
The thermodynamic dissociation constant, KD, for the E.β-TGDDF complex was measured by following the enhancement of the inhibitor's 395 nm fluorescence (excitation at 275 nm) upon binding to GAR TFase. A concentrated E. coli GAR TFase solution was added to an 11 nM solution of purified β-TGDDF; for each addition, the fluorescence at three different wavelengths (396, 400, and 405 nm) was measured. Fluorescence titration data was analyzed by the method of Taira and Benkovic, J. Med. Chem., 31, 129-137 (1988).
(§1) In analyzing the biological activity of the compounds of the present invention, GAR TFase from E. coli was used. This enzyme behaves like the mammalian and avian enzyme with respect to substrate specificity, yet is a simple and effective system having only one biological activity. That is, unlike the avian trifunctional GAR TFase, the E. coli species has a sole function. This follows from the genetic evidence of Smith and Daum, J. Biol. Chem., 262, 10565-10569 (1987) as w®11 as the work of Schrimsher et al., Biochemistry, 25, 4366-4371 (1986) who have shown that […] from E. coli is a monofunctional protein, whereas, in chicken it belongs to a trifunctional protein containing, the activates: GAR SYNthase, GAR TFase, and AIR SYNthase.
The E. coli GAR TFase binding constants for the compounds of the present invention and other folate analogs are shown in Table I below: […]

The target of assay [2] is T1, E. coli GAR TFase. Nature of the assay: E. coli GAR TFase inhibition/activity assay (5,8-dideazafolate absorbance at 295 nm). The assay is classed as biochemical. The conditions noted are these: E. coli GAR TFase, 26° C, 1 nM enzyme, saturating substrates. As to the method: (§2) All assays were carried out by following the increase of 5,8-dideazafolate absorbence at 295 nm in buffered medium at 26° C. To initiate the reaction, enzyme (1 nM final concentration) was added to a mixture of saturating substrates and variable amounts of inhibitor. A characteristic family of curves was obtained, showing slow, tight-binding inhibition. See, Morrison, Trends Biochem. Sc., 7, 102 (1982) and Morrison, et al., Adv. Enzymology, Relat. Areas Mol. Biol., 57, 201-301 (1987).
as §1
The E. coli GAR TFase binding constants for the compounds of the present invention and other folate analogs are shown in Table I below:
(§3) Table II illustrates the specificity of beta-TGDDF for GAR TFase in comparison with other reduced-folate utilizing enzymes. This test, was conducted using the same [I]/[E]ratios as stated previously.

Assay [3] addresses GAR TFase (avian) (Gallus gallus, UniProt P21872). The assay is described as follows: Avian GAR TFase inhibition. The class given is biochemical. As to conditions: for Mode of inhibition: avian GAR TFase. The method, then:
as §2
(§4) The specificity of beta-TGDDF for GAR TFase from species other than E. coli was assayed in a general manner by measuring the activity of GAR TFase at a concentration of 1 nM from avian, HeLa, and L121? sources in the presence of 20 nM beta-TGDDF.
as §3

In assay [4] the target is T2, GAR TFase (HeLa O) (Homo sapiens, UniProt P22102).
T2 construct: GAR TFase activity is the C-terminal domain of trifunctional GART
T2 sequence (P22102 2-1010): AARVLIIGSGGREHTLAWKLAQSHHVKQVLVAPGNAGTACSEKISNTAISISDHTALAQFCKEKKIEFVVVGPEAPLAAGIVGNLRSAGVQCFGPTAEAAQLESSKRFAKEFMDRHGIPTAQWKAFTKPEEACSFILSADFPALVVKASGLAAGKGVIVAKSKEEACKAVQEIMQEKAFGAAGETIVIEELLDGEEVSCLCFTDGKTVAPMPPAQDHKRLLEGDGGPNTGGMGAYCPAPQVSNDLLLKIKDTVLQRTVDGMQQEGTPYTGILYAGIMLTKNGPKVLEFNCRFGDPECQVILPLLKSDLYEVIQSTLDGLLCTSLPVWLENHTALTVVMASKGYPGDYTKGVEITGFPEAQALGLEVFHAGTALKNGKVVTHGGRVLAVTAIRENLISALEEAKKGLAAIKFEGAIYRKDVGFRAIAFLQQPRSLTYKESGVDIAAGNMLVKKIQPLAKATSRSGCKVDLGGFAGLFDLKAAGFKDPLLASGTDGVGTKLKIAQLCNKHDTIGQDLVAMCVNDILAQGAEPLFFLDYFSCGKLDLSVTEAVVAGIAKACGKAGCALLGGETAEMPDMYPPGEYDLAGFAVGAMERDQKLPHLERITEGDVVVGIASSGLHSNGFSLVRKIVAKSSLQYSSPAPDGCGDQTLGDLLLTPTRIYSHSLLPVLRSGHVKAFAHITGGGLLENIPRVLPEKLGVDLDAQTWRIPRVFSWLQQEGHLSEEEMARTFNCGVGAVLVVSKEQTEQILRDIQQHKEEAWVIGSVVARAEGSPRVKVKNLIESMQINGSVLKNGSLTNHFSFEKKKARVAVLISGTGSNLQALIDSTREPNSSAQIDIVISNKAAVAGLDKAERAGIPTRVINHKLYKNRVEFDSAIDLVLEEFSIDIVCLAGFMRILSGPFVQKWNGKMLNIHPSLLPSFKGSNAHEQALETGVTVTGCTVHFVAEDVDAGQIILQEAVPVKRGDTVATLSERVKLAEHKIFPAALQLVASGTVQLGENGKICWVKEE
The assay is described as follows: HeLa O GAR TFase inhibition. The class given is biochemical. As to conditions: for Mode of inhibition: HeLa O GAR TFase. The method, then:
as §2, §4, §3
E. coli GAR TFase was prepared and purified as described below. L1210 and HeLa GAR TFase were purified according to published procedures. AICAR TFase was prepared according to published procedures.

Sequence of GAR TFase (avian) (P21872 whole entry): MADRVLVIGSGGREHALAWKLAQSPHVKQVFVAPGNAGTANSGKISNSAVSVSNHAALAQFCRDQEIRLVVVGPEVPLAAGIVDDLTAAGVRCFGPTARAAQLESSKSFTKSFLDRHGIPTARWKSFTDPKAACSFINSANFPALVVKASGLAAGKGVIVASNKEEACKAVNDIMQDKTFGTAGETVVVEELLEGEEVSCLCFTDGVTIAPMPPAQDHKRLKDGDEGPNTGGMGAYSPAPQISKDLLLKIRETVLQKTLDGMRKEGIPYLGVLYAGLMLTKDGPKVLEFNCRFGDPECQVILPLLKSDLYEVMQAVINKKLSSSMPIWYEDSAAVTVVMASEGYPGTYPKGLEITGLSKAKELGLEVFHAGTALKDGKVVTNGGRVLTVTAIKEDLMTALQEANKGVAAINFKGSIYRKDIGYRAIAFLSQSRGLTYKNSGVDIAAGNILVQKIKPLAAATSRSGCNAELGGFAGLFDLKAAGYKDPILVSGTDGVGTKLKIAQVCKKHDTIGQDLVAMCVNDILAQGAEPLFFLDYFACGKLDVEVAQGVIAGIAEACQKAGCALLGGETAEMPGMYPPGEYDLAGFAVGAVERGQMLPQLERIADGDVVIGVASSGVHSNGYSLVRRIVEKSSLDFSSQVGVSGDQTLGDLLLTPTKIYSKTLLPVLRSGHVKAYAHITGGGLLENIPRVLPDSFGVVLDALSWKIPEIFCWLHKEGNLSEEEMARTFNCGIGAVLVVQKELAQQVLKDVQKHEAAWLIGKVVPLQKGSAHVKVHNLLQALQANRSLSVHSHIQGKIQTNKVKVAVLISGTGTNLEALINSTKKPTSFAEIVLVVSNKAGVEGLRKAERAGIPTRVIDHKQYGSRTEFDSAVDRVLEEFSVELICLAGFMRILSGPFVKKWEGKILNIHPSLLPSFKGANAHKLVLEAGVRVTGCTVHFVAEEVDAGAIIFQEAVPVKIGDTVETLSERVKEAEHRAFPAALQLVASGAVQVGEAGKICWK

Turning to `Nc1nc2ccc(CN(C(=O)CSCC(=O)N[C@@H]3O[C@H](COP(=O)(O)O)[C@@H](O)[C@H]3O)c3ccc(C(=O)N[C@@H](CCC(=O)O)C(=O)O)cc3)cc2c(=O)[nH]1` [beta-TGDDF, N^10-[5'-phosphoribosyl-1'-β-amino-carbonylmethyl-1-thioacetyl]-5,8-dideazafolate], the Kd in assay [1] was determined as 0.25 nM. For the same molecule, the Mode of inhibition entry in assay [2] is “slow, tight-binding inhibitor”; in assay [3] it was “inhibition of a slow, tight binding nature”; in assay [3] (listed as Beta-TGDDF) it was “slow, tight-binding inhibitor”; in assay [4] it was “inhibition of a slow, tight binding nature”; in assay [4] (listed as Beta-TGDDF), “slow, tight-binding inhibitor”. For the same molecule, the Extent of inhibition result is “inhibited by roughly the same magnitude” in assay [3] (20 nM beta-TGDDF, 1 nM enzyme) and “inhibited by roughly the same magnitude” in assay [4] (20 nM beta-TGDDF, 1 nM enzyme).

The record behind these values is patent US4999424A, “GAR transformylase inhibitor” (The Pennsylvania State University, priority 1988, dated 1991).
